# According to patent publication US10077436B2, “Beta-glucosidase enzymes for increased biomass saccharification” (Edeniq, Inc., priority 2013, dated 2018):
# Key:
# Assay type in all cases: biochemical
# [1] = system: S-BG (Novozymes SP188 from Sigma), commercial beta-glucosidase; assay: BG kinetics, pNPG hydrolysis assay with glucose as competitive inhibitor, S-BG; conditions: pNPG substrate, pH 5.0, 50° C.
# Source text: (§1) The kinetic properties of beta glucosidase are important for cellulosic hydrolysis, since in commercial situations a wide range of substrate concentrations and different product inhibition conditions will be encountered. In this example, a Michaelis-Menten kinetics model was used to describe BG kinetics. To determine these kinetic properties, BG activity assays using standard substrates pNPG and cellobiose were employed. yEdQ745-BG (wild type) and yEdQ885-BG (improved), were compared with two commercial BGs, A-BG (Accellerase®) BG from Dupont) and S-BG (Novozymes SP188 from Sigma).
# (§2) BG activity assay using pNPG is one of the two commonly used standard assays to measure BG activity, which utilizes hydrolysis of p-nitrophenyl-β-D-glucopyranoside (pNPG) by BG into a yellow colored product, p-nitrophenol (pNP), that has a strong absorbance at 405 nm. One pNPG unit is defined as the amount of enzyme that produces 1 μmol of pNP per min. Briefly, to determine BG activity, 25 μL of diluted enzyme in 200 mM sodium acetate buffer (pH 5.0) was mixed with 25 μL of the same buffer and 25 μL of RO water (or glucose solution for the kinetic study) and the mixture was preincubated at 50° C. for 5 min. The reaction was initiated by adding 25 μL of 10 mM pNPG in 200 mM sodium acetate buffer (pH 5.0) and the mixture was incubated at 50° C. for 10 min. The reaction was then terminated by adding 100 μL of 0.25 M sodium carbonate, and the amount of pNP produced was determined by measuring absorbance at 405 nm using a predetermined calibration curve.
# The range of substrate concentration was chosen to show detectable activity at the lowest concentration and saturation stage at high substrate concentration. The upper limit of inhibitor (glucose) level was chosen to get as close as possible to the real conditions during saccharification (˜4% w/v glucose) and have a detectable residual activity.
# (§3) To determine the kinetic properties, a competitive inhibition mechanism was hypothesized as proposed in the literature (Chauve et al, 2010; Krogh et al, 2010). The Michaelis-Menten equation with the competitive inhibition term can be expressed in Equation (1), where [S] is the substrate concentration (mM), [I] is the inhibitor concentration (mM), V is the rate of product formation (mM/min), Vmax is the maximal rate of product formation (mM/min), Km is the Michaelis-Menten constant and Ki is the inhibition constant. The turnover number, Kcat, can be calculated by Equation (2), where [Et] is the total amount of enzyme.
# (§4) Conventionally, linearization methods can be used to determine the kinetic parameters based on Equation (1). Three common linear plots used are Lineweaver-Burke, Eadie-Hofstee and Hanes plots (Rogers and Gibon, 2009). However, these linearized versions of the Michaelis-Menten equation often produce substantial errors in parameter estimation. […] All of the activity data at different substrate levels and different inhibitor levels were fit simultaneously according to the full nonlinear equation for competitive enzyme inhibition as expressed in Equation (1). Thus, Vmax, Km and Ki can be determined simultaneously from this fitting process, and Km/Ki can then be calculated. Kcat can be obtained by Equation (2) and Kcat/Km can be calculated accordingly.
# The above experimental data were fit in the competitive inhibition model as expressed in Equation (1) by simultaneous nonlinear regression. The order of maximum velocity (Vmax) is A-BG>yEdQ885-BG>S-BG≈yEdQ745-BG. […] Nevertheless, the in-house BGs have much higher dissociation constant for inhibitor (Ki), indicating higher tolerance to product inhibition. Consistent with Vmax, the order of turnover number (Kcat) is A-BG>yEdQ885-BG>S-BG≈yEdQ745-BG. With much lower Km and much higher Kcat, A-BG has a considerably higher catalytic efficiency (Kcat/Km) than the other enzymes. The catalytic efficiency of S-BG and yEdQ885-BG is quite close, which is higher than that of yEdQ745-BG. […]
# [2] = system: A-BG (Accellerase® BG from DuPont), commercial beta-glucosidase; assay: BG kinetics, pNPG hydrolysis assay with glucose as competitive inhibitor, A-BG; conditions: pNPG substrate, pH 5.0, 50° C.
# Procedure: (§5) The kinetic properties of beta glucosidase are important for cellulosic hydrolysis, since in commercial situations a wide range of substrate concentrations and different product inhibition conditions will be encountered. In this example, a Michaelis-Menten kinetics model was used to describe BG kinetics.
# as §2, with “One” for “BG activity assay using pNPG is one of the two commonly used standard assays to measure BG activity, which utilizes hydrolysis of p-nitrophenyl-β-D-glucopyranoside (pNPG) by BG into a yellow colored product, p-nitrophenol (pNP), that has a strong absorbance at 405 nm. One”
# The range of substrate concentration was chosen to show detectable activity at the lowest concentration and saturation stage at high substrate concentration.
# as §3, §4
# (§6) The above experimental data were fit in the competitive inhibition model as expressed in Equation (1) by simultaneous nonlinear regression.
# [3] = system: S-BG (Novozymes SP188 from Sigma), commercial beta-glucosidase; assay: BG kinetics, cellobiose hydrolysis assay (HPLC) with glucose as competitive inhibitor, S-BG; conditions: cellobiose substrate, pH 4.8, 50° C.
# Source text: as §1
# (§7) BG activity assay using cellobiose is the other standard assay to measure BG or cellobiase activity, which utilizes hydrolysis of cellobiose by cellobiase into two molecules of glucose, the last step of enzymatic hydrolysis of cellulose. One cellobiase unit (commonly termed as CBU) is defined as the amount of enzyme that converts […] of cellobiose or produces 2 μmol of glucose per min. Briefly, to determine BG activity, 25 μL of diluted enzyme in 50 mM citrate buffer (pH 4.8) equilibrated to 50° C. was mixed with 25 μL cellobiose (or cellobiose/glucose mixture for the kinetic study) to start the reaction. The mixture was incubated at 50° C. for 10 min, and the reaction was terminated by incubating the mixture at 99° C. for 5 min. Different methods are available to measure the glucose produced in the assays. For the kinetic study, HPLC was used.
# To determine kinetic properties using cellobiose substrate, duplicate assays with cellobiose concentrations ranging from 0.47 to 15 mM and glucose concentrations of 0, 0.9, 4.5, 6.75, and 8.1 (for A-BG) or 9 (for all the other three BGs) g/L were performed. As for pNPG substrate, the range of cellobiose substrate concentration was chosen to show detectable activity at the lowest substrate concentration and saturation stage at high substrate concentration. However, in contrast to the pNPG substrate, when there was still some activity left at glucose concentration up to 36 g/L, most of the BG activity was lost at an inhibitor level of 9 g/L when cellobiose substrate was used. […] It should also be noted that colorimetric glucose assay cannot provide activity results for inhibitory glucose levels above 0.9 g/L after several trials. Therefore, HPLC measurements were used for kinetic studies using cellobiose substrate. It should be pointed out that the HPLC method may not be sensitive enough either to capture BG activity under more severe glucose inhibition conditions than 9 g/L of glucose. Moreover, theoretically there are two ways to measure BG activity by HPLC when cellobiose is used as the substrate: tracking consumption of cellobiose or tracking production of glucose. However, as shown by the example of one set of results from S-BG in Table 3, tracking glucose is problematic due to measurement sensitivity. In Table 3, A % is defined as follows and is an indicator of measurement sensitivity, since the difference of substrate or product concentrations before and after reaction was used to determine BG activity. Δ%=(start conc. of cellobiose−end conc. of cellobiose)/start conc. of cellobiose×100% (3) Δ%=(end conc. of glucose−start conc. of glucose)/start conc. of glucose×100% (4)
# With increasing inhibitor (glucose) level, Δ% is decreasing. For the case of tracking glucose, Δ% was too small to be reliable when 4.5 g/L of glucose was added at the beginning. […] Thus, the approach of tracking cellobiose was chosen due to its higher detection sensitivity. In the substrate range used to determine kinetic parameters (0.47 to 30 mM for A-BG and 0.47 to 15 mM for the other three BGs), the detection sensitivity is reasonable.
# A similar simultaneous nonlinear regression method based on the competitive inhibition equation expressed in Equation (1) was used to determine kinetic parameters of BG towards cellobiose. […]
# [4] = system: A-BG (Accellerase® BG from DuPont), commercial beta-glucosidase; assay: BG kinetics, cellobiose hydrolysis assay (HPLC) with glucose as competitive inhibitor, A-BG; conditions: cellobiose substrate, pH 4.8, 50° C.
# Source text: as §5, §7
# To determine kinetic properties using cellobiose substrate, duplicate assays with cellobiose concentrations ranging from 0.47 to 15 mM and glucose concentrations of 0, 0.9, 4.5, 6.75, and 8.1 (for A-BG) or 9 (for all the other three BGs) g/L were performed. As for pNPG substrate, the range of cellobiose substrate concentration was chosen to show detectable activity at the lowest substrate concentration and saturation stage at high substrate concentration. […] Moreover, theoretically there are two ways to measure BG activity by HPLC when cellobiose is used as the substrate: tracking consumption of cellobiose or tracking production of glucose. […] In Table 3, A % is defined as follows and is an indicator of measurement sensitivity, since the difference of substrate or product concentrations before and after reaction was used to determine BG activity. Δ%=(start conc. of cellobiose−end conc. of cellobiose)/start conc. of cellobiose×100% (3) Δ%=(end conc. of glucose−start conc. of glucose)/start conc. of glucose×100% (4)
# A similar simultaneous nonlinear regression method based on the competitive inhibition equation expressed in Equation (1) was used to determine kinetic parameters of BG towards cellobiose.
# The specific activity used here was determined by the initial velocity approach that is required by implementing Michaelis-Menten model (Copeland, 2000). The specific activity was determined by measuring consumption of cellobiose in the first 10 min of reaction and was expressed as μmol min^−1 mg^−1, where mg^−1 means per mg of total protein. The relative activity was determined based on the maximum activity obtained in the absence of initial glucose inhibition.
# as §6
SMILES,Kcat [1] [s⁻¹],Kcat/Km [1] [M⁻¹ s⁻¹],Km [1] [µM],Vmax [1] [U/mg],Kcat [2] [s⁻¹],Kcat/Km [2] [M⁻¹ s⁻¹],Km [2] [µM],Vmax [2] [U/mg],Kcat [3] [s⁻¹],Kcat/Km [3] [M⁻¹ s⁻¹],Km [3] [µM],Vmax [3] [units/mg],Kcat [4] [s⁻¹],Kcat/Km [4] [M⁻¹ s⁻¹],Km [4] [µM],Vmax [4] [units/mg]
"O=[N+]([O-])c1ccc(O[C@@H]2O[C@H](CO)[C@@H](O)[C@H](O)[C@H]2O)cc1 [pNPG, p-nitrophenyl-β-D-glucopyranoside]",8.4,20000,420 ± 60,4.20 ± 0.14,44.9232,453769.7,99 ± 12,34.38 ± 0.67,–,–,–,–,–,–,–,–
OC[C@H]1O[C@@H](O[C@H]2[C@H](O)[C@@H](O)C(O)O[C@@H]2CO)[C@H](O)[C@@H](O)[C@@H]1O (stereo partly shown) [cellobiose],–,–,–,–,–,–,–,–,15.54,9773.7,1590 ± 410,7.77 ± 0.56,67.803,10336,6560 ± 890,51.89 ± 2.53
